Key:
[1] = tested on: facial skin; test: Clinical investigator grading of facial attributes, 9-point ordinal scale, 12 week clinical study; format: in vivo, human; conditions: for Cheek Wrinkles clinical grading Mean: Baseline mean 2.41; for Under-Eye Area Wrinkles clinical grading Mean: Baseline mean 3.19; for Crows Feet Wrinkles clinical grading Mean: Baseline mean 3.29; for Face Tactile Roughness/Smoothness clinical grading Mean: Baseline mean 3.48; for Face Fine Lines (Overall) clinical grading Mean: Baseline mean 4.29; for Face Pore Size clinical grading Mean: Baseline mean 4.41; for Face Global Firmness Appearance clinical grading Mean: Baseline mean 5.03; for Face Mottled Pigmentation clinical grading Mean / Face Uneven Skin Tone clinical grading Mean: Baseline mean 5.05; for Face Jawline Contour clinical grading Mean: Baseline mean 5.16; for Face Overall Appearance clinical grading Mean: Baseline mean 5.47; for Face Radiance clinical grading Mean: Baseline mean 5.81
Text: At baseline (Visit 1), each prospective subject completed an Eligibility and Health Questionnaire, and read and signed a Confidentially Agreement, a Photography Release Form and an Informed Consent Agreement. Each subject was explained the type of study, the detailed procedures and materials to be tested, along with any known adverse reactions that may result from participation. Subjects arrived at the clinic having refrained from applying any moisturizer to the face at least 3 to 5 days prior to visit and having cleansed the face to remove all makeup at least 30 minutes prior to visit. Subjects were consequently not allowed to use any other topical cosmeceuticals, topical retinoid, or moisturizers during the 12 week duration of the study. Subjects used the study product on their face twice daily for 12 weeks. Ordinal grading on a 9-point scale (0=none, 1-3=mild, 4-6=moderate, 7-9=severe) of facial fine lines, mottled pigmentation, uneven skin tone, tactile roughness, global firmness appearance, jaw-line contour, radiance and overall appearance was performed by investigator at baseline, week 1, week 4, week 8 and week 12. Digital high-resolution photography was performed on the front, right and left sides of the face. Each image was taken while the subject's eyes were open. Each subject's baseline photograph was compared to each post-baseline photograph to ensure consistent placement and lighting. Color standards were imaged prior to each study visit. All clinical and corneometer measurements and evaluations were taken at baseline, week 1 (visit 2), week 4 (visit 3), week 8 (visit 4) and week 12 (visit 5). Ultrasound and cutometer measurements and evaluations were taken at baseline, week 4 (visit 3), week 8 (visit 4) and week 12 (visit 5). Completed patient's diaries were reviewed for compliance at each visit. Mean clinical grading and instrumentation scores at each visit were statistically compared to baseline scores using paired t-test. Changes from baseline were considered significant at the p≦0.05 level. Mean percent change from baseline and incidence of positive responders were calculated for all attributes. Comparisons, based on the average from baseline, were made between the test materials using analysis of variance (ANOVA).

[2] = tested on: facial skin in the crow's feet area; test: Ultrasound measurement of density of the facial skin, 12 week clinical study; format: in vivo, human; conditions: for Ultrasound Density Mean: Baseline mean 18.55
Text: Ultrasound measurements were taken on the left side of each subject's face to measure density of the facial skin in the crow's feet area. Measurements were taken with the probe oriented perpendicular to the body axis while the subjects were resting supine on a padded patient table. All clinical and corneometer measurements and evaluations were taken at baseline, week 1 (visit 2), week 4 (visit 3), week 8 (visit 4) and week 12 (visit 5). Ultrasound and cutometer measurements and evaluations were taken at baseline, week 4 (visit 3), week 8 (visit 4) and week 12 (visit 5). Completed patient's diaries were reviewed for compliance at each visit. Mean clinical grading and instrumentation scores at each visit were statistically compared to baseline scores using paired t-test. Changes from baseline were considered significant at the p≦0.05 level. Mean percent change from baseline and incidence of positive responders were calculated for all attributes. Comparisons, based on the average from baseline, were made between the test materials using analysis of variance (ANOVA).

Structure (SMILES): OCc1ccccc1O[C@@H]1O[C@H](CO)[C@@H](O)[C@H](O)[C@H]1O [Salicin, 2-(Hydroxymethyl)phenyl β-D-glucospyranoside]
- Cheek Wrinkles clinical grading Mean ([1]; Week 1): 2.29
- Under-Eye Area Wrinkles clinical grading Mean ([1]; Week 1): 3.07
- Crows Feet Wrinkles clinical grading Mean ([1]; Week 1): 3.21
- Face Tactile Roughness/Smoothness clinical grading Mean ([1]; Week 1): 2.41
- Face Fine Lines (Overall) clinical grading Mean ([1]; Week 1): 4.14
- Face Pore Size clinical grading Mean ([1]; Week 1): 4.30
- Face Global Firmness Appearance clinical grading Mean ([1]; Week 1): 5.04
- Face Mottled Pigmentation clinical grading Mean ([1]; Week 1): 5.05
- Face Uneven Skin Tone clinical grading Mean ([1]; Week 1): 5.05
- Face Jawline Contour clinical grading Mean ([1]; Week 1): 5.14
- Face Overall Appearance clinical grading Mean ([1]; Week 1): 5.21
- Face Radiance clinical grading Mean ([1]; Week 1): 5.20
- Cheek Wrinkles clinical grading % Change ([1]; Week 1 vs Baseline): (−1.5%)
- Crows Feet Wrinkles clinical grading % Change ([1]; Week 1 vs Baseline): (−0.5%)
- Face Fine Lines (Overall) clinical grading % Change ([1]; Week 1 vs Baseline): (−3.7%)
- Face Global Firmness Appearance clinical grading % Change ([1]; Week 1 vs Baseline): (0.3%)
- Face Jawline Contour clinical grading % Change ([1]; Week 1 vs Baseline): (0.0%)
- Face Mottled Pigmentation clinical grading % Change ([1]; Week 1 vs Baseline): (−0.7%)
- Face Overall Appearance clinical grading % Change ([1]; Week 1 vs Baseline): (−4.2%)
- Face Pore Size clinical grading % Change ([1]; Week 1 vs Baseline): (−2.4%)
- Face Radiance clinical grading % Change ([1]; Week 1 vs Baseline): (−11.0%)
- Face Tactile Roughness/Smoothness clinical grading % Change ([1]; Week 1 vs Baseline): (−30.7%)
- Face Uneven Skin Tone clinical grading % Change ([1]; Week 1 vs Baseline): (−0.7%)
- Under-Eye Area Wrinkles clinical grading % Change ([1]; Week 1 vs Baseline): (−1.7%)
- Cheek Wrinkles clinical grading Mean ([1]; Week 4): 2.26
- Under-Eye Area Wrinkles clinical grading Mean ([1]; Week 4): 2.79
- Crows Feet Wrinkles clinical grading Mean ([1]; Week 4): 3.00
- Face Tactile Roughness/Smoothness clinical grading Mean ([1]; Week 4): 2.02
- Face Fine Lines (Overall) clinical grading Mean ([1]; Week 4): 3.76
- Face Pore Size clinical grading Mean ([1]; Week 4): 4.05
- Face Global Firmness Appearance clinical grading Mean ([1]; Week 4): 4.86
- Face Mottled Pigmentation clinical grading Mean ([1]; Week 4): 4.74
- Face Uneven Skin Tone clinical grading Mean ([1]; Week 4): 4.74
- Face Jawline Contour clinical grading Mean ([1]; Week 4): 5.10
- Face Overall Appearance clinical grading Mean ([1]; Week 4): 4.91
- Face Radiance clinical grading Mean ([1]; Week 4): 4.90
- Cheek Wrinkles clinical grading % Change ([1]; Week 4 vs Baseline): (−6.4%)
- Crows Feet Wrinkles clinical grading % Change ([1]; Week 4 vs Baseline): (−8.9%)
- Face Fine Lines (Overall) clinical grading % Change ([1]; Week 4 vs Baseline): (−12.4%)
- Face Global Firmness Appearance clinical grading % Change ([1]; Week 4 vs Baseline): (−3.4%)
- Face Jawline Contour clinical grading % Change ([1]; Week 4 vs Baseline): (−1.0%)
- Face Mottled Pigmentation clinical grading % Change ([1]; Week 4 vs Baseline): (−6.1%)
- Face Overall Appearance clinical grading % Change ([1]; Week 4 vs Baseline): (−10.0%)
- Face Pore Size clinical grading % Change ([1]; Week 4 vs Baseline): (−8.2%)
- Face Radiance clinical grading % Change ([1]; Week 4 vs Baseline): (−15.7%)
- Face Tactile Roughness/Smoothness clinical grading % Change ([1]; Week 4 vs Baseline): (−42.0%)
- Face Uneven Skin Tone clinical grading % Change ([1]; Week 4 vs Baseline): (−6.1%)
- Under-Eye Area Wrinkles clinical grading % Change ([1]; Week 4 vs Baseline): (−12.4%)
- Cheek Wrinkles clinical grading Mean ([1]; Week 8): 2.12
- Under-Eye Area Wrinkles clinical grading Mean ([1]; Week 8): 2.55
- Crows Feet Wrinkles clinical grading Mean ([1]; Week 8): 2.71
- Face Tactile Roughness/Smoothness clinical grading Mean ([1]; Week 8): 1.43
- Face Fine Lines (Overall) clinical grading Mean ([1]; Week 8): 3.47
- Face Pore Size clinical grading Mean ([1]; Week 8): 3.86
- Face Global Firmness Appearance clinical grading Mean ([1]; Week 8): 4.64
- Face Mottled Pigmentation clinical grading Mean ([1]; Week 8): 4.57
- Face Uneven Skin Tone clinical grading Mean ([1]; Week 8): 4.57
- Face Jawline Contour clinical grading Mean ([1]; Week 8): 4.95
- Face Overall Appearance clinical grading Mean ([1]; Week 8): 4.67
- Face Radiance clinical grading Mean ([1]; Week 8): 4.72
- Cheek Wrinkles clinical grading % Change ([1]; Week 8 vs Baseline): (−12.1%)
- Crows Feet Wrinkles clinical grading % Change ([1]; Week 8 vs Baseline): (−17.8%)
- Face Fine Lines (Overall) clinical grading % Change ([1]; Week 8 vs Baseline): (−19.2%)
- Face Global Firmness Appearance clinical grading % Change ([1]; Week 8 vs Baseline): (−7.8%)
- Face Jawline Contour clinical grading % Change ([1]; Week 8 vs Baseline): (−4.0%)
- Face Mottled Pigmentation clinical grading % Change ([1]; Week 8 vs Baseline): (−9.5%)
- Face Overall Appearance clinical grading % Change ([1]; Week 8 vs Baseline): (−14.5%)
- Face Pore Size clinical grading % Change ([1]; Week 8 vs Baseline): (−12.5%)
- Face Radiance clinical grading % Change ([1]; Week 8 vs Baseline): (−18.6%)
- Face Tactile Roughness/Smoothness clinical grading % Change ([1]; Week 8 vs Baseline): (−58.9%)
- Face Uneven Skin Tone clinical grading % Change ([1]; Week 8 vs Baseline): (−9.5%)
- Under-Eye Area Wrinkles clinical grading % Change ([1]; Week 8 vs Baseline): (−20.0%)
- Cheek Wrinkles clinical grading Mean ([1]; Week 12): 2.02
- Under-Eye Area Wrinkles clinical grading Mean ([1]; Week 12): 2.24
- Crows Feet Wrinkles clinical grading Mean ([1]; Week 12): 2.48
- Face Tactile Roughness/Smoothness clinical grading Mean ([1]; Week 12): 0.98
- Face Fine Lines (Overall) clinical grading Mean ([1]; Week 12): 3.10
- Face Pore Size clinical grading Mean ([1]; Week 12): 3.71
- Face Global Firmness Appearance clinical grading Mean ([1]; Week 12): 4.48
- Face Mottled Pigmentation clinical grading Mean ([1]; Week 12): 4.33
- Face Uneven Skin Tone clinical grading Mean ([1]; Week 12): 4.34
- Face Jawline Contour clinical grading Mean ([1]; Week 12): 4.74
- Face Overall Appearance clinical grading Mean ([1]; Week 12): 4.50
- Face Radiance clinical grading Mean ([1]; Week 12): 4.59
- Cheek Wrinkles clinical grading % Change ([1]; Week 12 vs Baseline): (−16.4%)
- Crows Feet Wrinkles clinical grading % Change ([1]; Week 12 vs Baseline): (−24.6%)
- Face Fine Lines (Overall) clinical grading % Change ([1]; Week 12 vs Baseline): (−27.7%)
- Face Global Firmness Appearance clinical grading % Change ([1]; Week 12 vs Baseline): (−10.9%)
- Face Jawline Contour clinical grading % Change ([1]; Week 12 vs Baseline): (−8.0%)
- Face Mottled Pigmentation clinical grading % Change ([1]; Week 12 vs Baseline): (−14.3%)
- Face Overall Appearance clinical grading % Change ([1]; Week 12 vs Baseline): (−17.6%)
- Face Pore Size clinical grading % Change ([1]; Week 12 vs Baseline): (−16.0%)
- Face Radiance clinical grading % Change ([1]; Week 12 vs Baseline): (−21.0%)
- Face Tactile Roughness/Smoothness clinical grading % Change ([1]; Week 12 vs Baseline): (−71.7%)
- Face Uneven Skin Tone clinical grading % Change ([1]; Week 12 vs Baseline): (−13.9%)
- Under-Eye Area Wrinkles clinical grading % Change ([1]; Week 12 vs Baseline): (−29.7%)
- Ultrasound Density Mean ([2]; Week 4): 21.38
- Ultrasound Density % Change ([2]; Week 4 vs Baseline): (15.2%)
- Ultrasound Density Mean ([2]; Week 8): 23.52
- Ultrasound Density % Change ([2]; Week 8 vs Baseline): (26.7%)
- Ultrasound Density Mean ([2]; Week 12): 25.21
- Ultrasound Density % Change ([2]; Week 12 vs Baseline): (35.8%)
